# Literature values, collected in patent publication US20160052938A1, “SPIRO[3H-INDOLE-3,2'-PYRROLIDIN]-2(1H)-ONE COMPOUNDS AND DERIVATIVES AS MDM2-P53 INHIBITORS” (Boehringer Ingelheim International GmbH, priority 2014, published 2016).
# Test system: acute lymphoblastic leukemia (ALL) xenograft models with mixed-lineage leukemia (MLL) rearrangement
# Conditions: Carol et al. 2013; cited from earlier work
compound,measurement,value
CCOc1cc(C(C)(C)C)ccc1C1=N[C@@](C)(c2ccc(Cl)cc2)[C@@](C)(c2ccc(Cl)cc2)N1C(=O)N1CCN(CCCS(C)(=O)=O)CC1 [RG-7112],efficacy,particularly efficacious
